Data published in patent US12637479B2, “Low energy gap small molecule material and organic optoelectronic device using the same” (Raynergy Tek Incorporation, priority 2021, dated 2026).

Legend:
Assay type in all cases: physicochemical
[1] = UV-Vis-NIR absorption spectra in chloroform solution
Protocol: (§1) Please refer to FIG. 2 to FIG. 4 and Table 1.
(§2) The highest occupied molecular orbital (HOMO) is calculated from HOMO=−|4.71÷E^xo−E^ferroncene|eV. The optical energy gap

[2] = UV-Vis-NIR absorption spectra in film, optical energy gap from absorption onset
Protocol: as §1, §2
[formula] of the material is known from the absorption onset position
(§3) [formula] of the UV-Vis-NIR absorption spectrum in film state. The lowest unoccupied molecular orbital (LUMO) is calculated from LUMO=HOMO+Eg eV.

[3] = Energy levels by cyclic voltammetry (HOMO, LUMO)
Protocol: as §2, §3

[4] = Solubility measurement in o-xylene; details: 8 mg sample in 1 mL o-xylene
Excerpt: Among them, “O” means complete dissolution, and “X” means incomplete dissolution. […] In the art, it is an industry trend to use non-halogenated green solvents. Green solvents generally come from renewable resources or can be degraded by soil organisms or other substances, have a short half-life, and are easily decayed into low-toxic and non-toxic substances. Therefore, green solvents are generally less harmful to biological health and the environment than general solvents that are easily chlorinated or highly toxic. Green solvents are also called environmentally friendly solvents. O-xylene is a non-halogen green solvent.

λsoln^max ([1]; chloroform solution): 965 nm
ε ([1]; maximum absorption coefficient): 1.41 10^5 cm^−1 M^−1
λfilm^max ([2]; film): 1029 nm
λfilm^onset ([2]; film): 1455 nm
Eg^opt ([2]; from absorption onset in film state): 0.85 eV
LUMO ([3]; LUMO=HOMO+Eg): −4.32 eV
HOMO ([3]; cyclic voltammetry): −5.17 eV
Solubility [4]: ◯
SMILES: CCCCCCCCCCCCc1cc(-c2c3c(c(-c4cc(CCCCCCCCCCCC)c(-c5cc6c(s5)-c5sc(-c7sc(-c8c9c(c(-c%10cc(CCCCCCCCCCCC)c(/C=C%11\C(=O)c%12cc(F)c(F)cc%12C%11=C(C#N)C#N)s%10)c%10nn(CC(CC)CCCC)nc8%10)N=S=N9)cc7CCCCCCCCCCCC)cc5C6(c5cc(CCCCCC)cc(CCCCCC)c5)c5cc(CCCCCC)cc(CCCCCC)c5)s4)c4nn(CC(CC)CCCC)nc24)N=S=N3)sc1/C=C1\C(=O)c2cc(F)c(F)cc2C1=C(C#N)C#N (centres unmarked) [Q4]
